Values of other authors as cited in patent publication US20120122825A1, “USE OF PICOPLATIN TO TREAT PROSTATE CANCER” (Poniard Pharmaceuticals, Inc., priority 2009, published 2012).

Columns and labels:
[1] = test system: patients with solid tumors; conditions: picoplatin and docetaxel combination, 33 patients with solid tumors
[2] = 30 mg/m^2 docetaxel weekly for 5 of 6 weeks plus 5 mg prednisone twice daily

Structure (SMILES): CC(=O)O[C@@]12CO[C@@H]1C[C@H](O)[C@@]1(C)C(=O)[C@H](O)C3=C(C)[C@@H](OC(=O)[C@H](O)[C@@H](NC(=O)OC(C)(C)C)c4ccccc4)C[C@@](O)([C@@H](OC(=O)c4ccccc4)[C@H]21)C3(C)C [docetaxel]
- dose limiting toxicity (DLT) dose [1]: 75 mg/m^2
- recommended Phase II dose (PTD) [1]: 75 mg/m^2
- >50% reductions in PSA, share of men (men with HRPC; [2]): 48%
- Overall survival (men with HRPC; [2]): 17.4 months
- PSA response expected (men with HRPC; docetaxel alone, comparison value): 45%
